Measured values from US6906100B2, “Compounds and compositions derived from olives and methods of the use thereof” (Lavipharm S.A., priority 2002, dated 2005).

Legend:
[1] = antioxidant ability by usual chemical methods (e.g. DPPH)
Jurkat cells = test: comet assay (single cell gel electrophoresis): protection of DNA of intact cells exposed to H2O2; type: cell-based; conditions: H2O2 generated by glucose oxidase; for protective activity on cells against oxidative stress (decrease of induced DNA damage): 10 min exposure
Description: In the analysis of the antioxidant activity of the extracts I, II, III and IV, as well as, of the pure Compounds 1-9, a method based on measuring the relative protection of DNA of intact cells was performed. This was done with the use of Jurkat cell cultures (a cell line of T-lymph-cells), which were grown in RPMI-1640 enriched with fetal bovine calf serum (10%), penicillin, streptomycin and glutamine. The cells were incubated with the extracts or the purified compounds in the presence of glucose oxidase (60 ng/100 ml) used for the generation of H2O2. After exposure of the cells to H2O2 for 10 min, the degree of DNA damage was evaluated using a specialized method, “single cell gel electrophoresis”, also known as the “comet assay”. The comet assay method is described in the following references: 1. Barbouti A. et al., “DNA Damage And Apoptosis In Hydrogen Peroxide-Exposed Jurkat Cells: Bolus Addition Versus Continuous Generation Of H2O2,” Free Radical Biology and Medicine, 33(5): 691-702, Elsevier Press (2002); as well as Panagiotidis M. et al. (1999) Free Radical Biology and Medicine, 26(5-6): 548-556; Doulias P-T. et al. (2001) Free Radical Biology and Medicine, 30(6): 679-685; Tselepis A. et al. (2001) Free Radical Biology and Medicine, 30(12): 1357-1364; and Barbouti A. et al. (2001) Free Radical Biology and Medicine, 31(4): 490-498 5.
Jurkat cells—a cell line of lymphocytic origin—were exposed to continuously generated hydrogen peroxide, H2O2 and the effects of this treatment on cellular DNA was evaluated according to the references above. […]
The graphic results of the “comet assay” for the waste water extract (IV) and tyrosol (Compound 4), 2-(5-ethylidene-2-oxo-tetrahydropyran-4-yl) acetic acid (from the compound class of lactones or Compound 6) and hydroxytyrosol (Compound 7) are depicted below in FIGS. 3-6, respectively. […] The values are expressed as mean ±SD (n=3).

| SMILES | antioxidant ability [1] | dose dependence of protection (Jurkat cells) | protective activity on cells against oxidative stress (decrease of induced DNA damage) (Jurkat cells) |
| --- | --- | --- | --- |
| CC=C1COC(=O)CC1CC(=O)O (stereo not shown) [2-(5-ethylidene-2-oxo-tetrahydropyran-4-yl) acetic acid] | does not show any antioxidant ability | dose-dependent protection | strong protective activity |
| OCCc1ccc(O)cc1 [tyrosol, Tyrosol] | – | – | not |
